Laboratory results taken from US20200385406A1 (priority 2017, published 2020).
Read-outs that look alike come from different tables or passages of the source.

Key:
HIV-1 NL4-3 = experiment: HIV-1 infectivity assay in TZM-bl reporter cells; format: cell-based; conditions: for inhibition at 3 µM: Human immunodeficiency virus 1, NL43, TZM-bl, read-out: % Inhibition of HIV-1 Infectivity at 3 μM relative to ΔNef
Description: The antiretroviral activity of Nef inhibitor analogs was assessed using the reporter cell line, TZM-bl, which are HeLa cells engineered to express CD4, HIV-1 co-receptors, as well as an HIV-1 LTR-luciferase reporter gene. TZM-bl cells (2.5×10^4) were plated in 96-well plates and allowed to adhere overnight prior to infection. Adherent cells and HIV-1NL4-3 (typically 5,000 pg p24/ml) were then incubated separately with compounds for 3 h and combined in a final volume of 200 μl in each well. Following incubation for 48 h at 37° C., the cells were lysed in 50 μl luciferase cell culture lysis reagent (Promega). Lysates (40 μl) were then transferred to white 96-well plates followed by 50 μl injections of luciferase reagent per well (Promega). Luminescence was then recorded with a delay time of 2 s and an integration period of 10 s. Cytotoxicity of each compound in the absence of HIV-1 was evaluated in TZM-bl cells using the CellTiter-Blue cell viability assay (Promega).

HIV-1 Nef-SF2 = molecular target: T1, HIV-1 Nef-SF2 (Human immunodeficiency virus type 1 group M subtype B, UniProt P03407); experiment: SPR binding to recombinant purified Nef protein
T1 construct: Full-length recombinant Nef proteins (HIV-1 Nef-SF2, HIV-1 Nef NL4-3 and SIV Nef-mac239) were expressed in E. coli; His-6 (N); made in house; host or cells: E. coli
Description: (§1) Interaction of inhibitor analogs with recombinant purified Nef proteins was performed using an SPR-based binding assay on a Reichert 4-channel SPR instrument. Full-length recombinant Nef proteins (HIV-1 Nef-SF2, HIV-1 Nef NL4-3 and SIV Nef-mac239) were expressed in E. coli and purified via N-terminal His-6 tags, ion-exchange chromatography, and gel filtration. Purity and identity of the Nef proteins was confirmed by SDS-PAGE and mass spectrometry. For SPR, Nef proteins were immobilized on carboxymethyl dextran biosensor chips (Reichert) in HBS-EP running buffer (10 mM HEPES, pH 7.4, 150 mM NaCl, 3 mM EDTA, 0.05% v/v Surfactant P20). Test compounds were injected in triplicate over a range of concentrations (typically 0.1 to 30 μM) at a rate of 10 μL/min for one min until equilibrium was reached, followed by dissociation in HBS-EP for 2 min. Kinetic rate constants were calculated from reference-corrected sensorgrams using the TraceDrawer software package (Reichert), and were best fit via 1:1 Langmuir or 2-step induced-fit binding models. Some initial SPR experiments were performed on a BIAcore T100 instrument (GE Healthcare) using four-channel CM5 biosensor chips, and ligand-protein interactions were best-fit using the BIAevaluations software (version 2.0.4).

SIV Nef-mac239 = SIV Nef-mac239 (Simian immunodeficiency virus, UniProt Q5QGG3); experiment: SPR binding to recombinant purified Nef protein
Description: as §1

HIV-1 Nef NL4-3 = molecular target: T2, HIV-1 Nef NL4-3 (Human immunodeficiency virus type 1 group M subtype B, UniProt P03406, A33V/T15A/T51N/V11I); experiment: SPR binding to recombinant purified Nef protein
T2 construct: Full-length recombinant Nef proteins (HIV-1 Nef-SF2, HIV-1 Nef NL4-3 and SIV Nef-mac239) were expressed in E. coli; His-6 (N); made in house; host or cells: E. coli
Description: as §1

[1] = HIV-1 Nef-SF2, KD, Biacore T100 instrument
[2] = HIV-1 Nef-SF2, KD, Reichert 4-Channel instrument, N/I = No Interaction up to 1 μM
[3] = Reichert 4-Channel instrument, N/I = No Interaction up to 1 μM
[4] = SPR, Reichert 4-Channel instrument, N/I = No Interaction up to 1 μM

Compound | inhibition at 3 µM (HIV-1 NL4-3) [%] | Kd (HIV-1 Nef-SF2; [1]) [µM] | Kd (HIV-1 Nef-SF2; [2]) [µM] | Kd (SIV Nef-mac239) [µM] | Kd (HIV-1 Nef NL4-3) [µM] | other results
2-(2-methyl-5-(morpholine-4-carbonyl)phenyl)isothiazolo[5,4-b]pyridin-3(2H)-one [Compound 15] |  |  |  |  |  | % Inhibition of HIV-1 Infectivity at 3 μM relative to ΔNef (HIV-1 NL4-3; 3 μM, TZM-bl reporter cells infected with HIV-1 NL4-3): 81%; Kd (HIV-1 Nef-SF2; Reichert 4-Channel instrument, N/I = No Interaction up to 1 μM, read-out: HIV-1 Nef-SF2, KD): 0.39 µM; Kd (SIV Nef-mac239; SPR, Reichert 4-Channel instrument, N/I = No Interaction up to 1 μM, read-out: SIV Nef-mac239, KD): 1.28 µM; Kd (HIV-1 Nef NL4-3; SPR, Reichert 4-Channel instrument, N/I = No Interaction up to 1 μM, read-out: HIV-1 Nef-NL43, KD): 0.14 µM
O=C(c1cc(-n2sc3ncccc3c2=O)ccc1F)N1CCOCC1 [Compound 1, 2-(4-fluoro-3-(morpholine-4-carbonyl)phenyl)isothiazolo[5,4-b]pyridin-3(2H)-one] | 84 | 1.03 |  |  |  | 
Cc1ccc2c(=O)n(-c3ccc(F)c(C(=O)N4CCOCC4)c3)sc2n1 [Compound 2, 2-(4-fluoro-3-(morpholine-4-carbonyl)phenyl)-6-methylisothiazolo[5,4-b]pyridin-3(2H)-one] | 52 | 0.5 |  |  |  | 
Cc1ccc2c(=O)n(-c3ccc(Cl)c(C(=O)N4CCOCC4)c3)sc2n1 [Compound 3, 2-(4-chloro-3-(morpholine-4-carbonyl)phenyl)-6-methylisothiazolo[5,4-b]pyridin-3(2H)-one] | 23 | 0.87 |  |  |  | 
Cc1ccc2c(=O)n(-c3ccc(C)c(S(=O)(=O)N4CCCC4)c3)sc2n1 [Compound 4, 6-methyl-2-(4-methyl-3-(pyrrolidin-1-ylsulfonyl)phenyl)isothiazolo[5,4-b]pyridin-3(2H)-one] | 32 | 0.26 |  |  |  | 
O=C(c1cc(-n2sc3ncccc3c2=O)ccc1Cl)N1CCOCC1 [Compound 5, 2-(4-chloro-3-(morpholine-4-carbonyl)phenyl)isothiazolo[5,4-b]pyridin-3(2H)-one] | 99 | 0.162 | 2.24 | 1.51 | 7.33 | 
Cc1ccc(-n2sc3ncccc3c2=O)cc1S(=O)(=O)N1CCCC1 [Compound 6, 2-(4-methyl-3-(pyrrolidin-1-ylsulfonyl)phenyl)isothiazolo[5,4-b]pyridin-3(2H)-one] | 28 |  | 2.4 | 1.6 | 8.66 | 
O=C(Nc1ccc(Cl)cc1)c1cc(-n2sc3ncccc3c2=O)ccc1Cl [Compound 7, 2-chloro-N-(4-chlorophenyl)-5-(3-oxoisothiazolo[5,4-b]pyridin-2(3H)-yl)benzamide] | 58 | 0.12 |  | 0.28 | 0.19 | HIV-1 Nef-SF2, KD (HIV-1 Nef-SF2; [3]): N/I; SIV Nef-mac239, KD (SIV Nef-mac239; [4]): N/I; HIV-1 Nef-NL43, KD (HIV-1 Nef NL4-3; [4]): N/I
O=C(c1cc(-n2sc3nc(C(F)(F)F)ccc3c2=O)ccc1Cl)N1CCOCC1 [Compound 8, 2-(4-chloro-3-(morpholine-4-carbonyl)phenyl)-6-(trifluoromethyl)isothiazolo[5,4-b]pyridin-3(2H)-one] | 71 | 0.11 | 2.34 | 0.78 | 0.31 | SIV Nef-mac239, KD (SIV Nef-mac239; [4]): N/I; HIV-1 Nef-NL43, KD (HIV-1 Nef NL4-3; [4]): N/I
O=C(c1ccc(-n2sc3ncccc3c2=O)cc1)N1CCCC1 [Compound 9, 2-(4-(pyrrolidine-1-carbonyl)phenyl)isothiazolo[5,4-b]pyridin-3(2H)-one] | 38 |  |  |  | 0.04 | 
O=C(c1cccc(-n2sc3ncccc3c2=O)c1)N1CCOCC1 [Compound 10, 2-(3-(morpholine-4-carbonyl)phenyl)isothiazolo[5,4-b]pyridin-3(2H)-one] | 88 |  |  |  | 0.25 | 
CC1(C)CN(C(=O)c2cc(-n3sc4ncccc4c3=O)ccc2Cl)CCO1 [Compound 11, 2-(4-chloro-3-(2,2-dimethylmorpholine-4-carbonyl)phenyl)isothiazolo[5,4-b]pyridin-3(2H)-one] | 89 |  | 0.22 | 1.69 | 0.21 | 
O=C(c1cc(-n2sc3ncccc3c2=O)ccc1Cl)N1CCCC1 [Compound 12, 2-(4-chloro-3-(pyrrolidine-1-carbonyl)phenyl)isothiazolo[5,4-b]pyridin-3(2H)-one] | 100 |  | 1.71 | 3.66 | 0.96 | 
CC1CN(C(=O)c2cc(-n3sc4ncccc4c3=O)ccc2Cl)CC(C)O1 (stereo not drawn) [Compound 13, 2-(4-chloro-3-(2,6-dimethylmorpholine-4-carbonyl)phenyl)isothiazolo[5,4-b]pyridin-3(2H)-one] | 100 |  | 0.38 | 1.41 | 0.59 | 
O=C(c1cc(-n2sc3ncccc3c2=O)ccc1Cl)N1CCCCC1 [Compound 14, 2-(4-chloro-3-(piperidine-1-carbonyl)phenyl)isothiazolo[5,4-b]pyridin-3(2H)-one] | 82 |  | 1.4 | 3.11 | 1.76 | 
O=C(c1cc(-n2sc3ncccc3c2=O)ccc1Cl)N1CCC(F)(F)CC1 [Compound 16] | 60 |  | 9.39 | 21.1 | 56.2 | 
O=C(c1cc(N2Cc3ncccc3C2=O)ccc1Cl)N1CCOCC1 [Compound 17, 6-(4-chloro-3-(morpholine-4-carbonyl)phenyl)-6,7-dihydro-5H-pyrrolo[3,4-b]pyridin-5-one] | 16 |  |  |  |  | HIV-1 Nef-SF2, KD (HIV-1 Nef-SF2; [3]): N/I; SIV Nef-mac239, KD (SIV Nef-mac239; [4]): N/I; HIV-1 Nef-NL43, KD (HIV-1 Nef NL4-3; [4]): N/I
